# Columns and labels:
# [1] = test system: bovine reconstructed embryos; assay: Early embryonic development of bovine reconstructed embryos; type: cell-based; conditions: for Number of cleaved embryos / Cleavage rate (cleaved embryos to cultured embryos): 48 hours postactivation; for Number of embryos at the blastocyst stage: 168 hours postactivation
# Procedure: Bovine ovaries collected from sacrificed cows at a local slaughterhouse were stored in physiological saline at 25° C. and transported to the laboratory within 6 to 8 hours after slaughter. Bovine oocytes were harvested by aspiration of follicular fluids from follicles with diameters of 2 to 5 mm on the surfaces of bovine ovaries using 21G injection needles (Terumo, Tokyo, Japan) and 10-ml syringes (Terumo). Only oocyte-cumulus cell complexes to which 2 to 4 layers of cumulus cells were attached were selected and collected from the harvested follicular fluids. The collected oocyte-cumulus cell complexes were introduced into drops of 50 μl maturation medium under mineral oil (Sigma, USA) and cultured for 21 hours at 39° C. under 5% CO2 and 95% air at saturation humidity. The maturation medium was prepared by adding 0.02 AU/ml of follicle-stimulating hormone (FSH, Antrin, Kawasaki Seiyaku, Kanagawa, Japan) and 1 μg/ml estradiol 17-β (Sigma) to 25 mM HEPES buffered TCM-199 (Earle's salts, Gibco, m-TCM199E) supplemented with 5% (v/v) new born calf serum (NBCS, Gibco, N.Y., USA) and 25 μg/ml of gentamicin solution (Sigma).
# The oocyte-cumulus cell complexes matured for 21 hours were allowed to stand for 5 minutes in a solution containing 5% NBCS and 25 μg/ml gentamicin solution (Sigma) in 25 mM HEPES-buffered TCM-199 (Hank's salts, Gibco, m-TCM199H) containing 0.25% (w/v) hyaluronidase (Sigma). Then, the cumulus cells attached around the oocytes were fully removed by pipetting.
# The oocytes from which the cumulus cells had been removed were transferred to m-TCM119H and only oocytes with the first polar bodies had been emitted were selected under an inverted microscope. Zonae pellucidae above each first polar bodies were incised using a fine glass needle for removing nuclei from the oocytes, and the oocytes were transferred to m-TCM119H supplemented with 5 μg/ml cytochalacin B (Sigma) and allowed to stand for 15 minutes. Each oocyte was held from the upside using the glass needle used for incising zona pellucida, and enucleation was carried out by removing the first polar body and the oocyte cytoplasm neighboring the first polar body corresponding to about 10 to 20% of the oocyte cytoplasm volume from the zona pellucida incision site. The removed oocyte cytoplasm was transferred to m-TCM199E containing 20 μg/ml of Hoechst 33342 (Sigma) and stained at 39° C. under 5% CO2 and 95% air at saturated humidity for 30 minutes, and the enucleation was confirmed by judging the presence of nucleus in the enucleated oocyte cytoplasm under UV irradiation.
# Fibroblasts derived from an auricle of Japanese black cattle calves were used as donor cells for nuclear transfer. The donor cells were cultured to 80% confluency in Dulbecco's modified Eagle medium (DMEM, Nissui, Tokyo, Japan) supplemented with 10% (v/v) fetal bovine serum (FBS, Funakoshi, Tokyo, Japan). The culture medium was then exchanged for DMEM supplemented with 0.4% FBS, and the cells were cultured under serum-starvation conditions for 7 days. The cells cultured under serum-starvation conditions were isolated from the culture dishes using a 0.25% (w/v) solution of trypsin (Sigma) containing 0.04% (w/v) disodium dihydrogen ethylenediaminetetraacetic acid (EDTA, Nacalai Tesque, Kyoto, Japan). The cells were harvested by centrifugation in a centrifuge tube, and suspended in a phosphate buffered saline (PBS, Gibco) (−) solution containing 10% (w/v) polyvinylpyrrolidone (PVP, Nacalai Tesque). The isolated cells were aspirated into a micro-glass pipette for cell introduction, and introduced from the zona pellucida incision sites into the perivitelline spaces of the recipient enucleated oocytes. […]
# [2] = test system: oocytes after fertilization; conditions: treatment of oocytes after fertilization; Non-patent Document 3; cited from earlier work
# [3] = TSA in the culture medium, 5-500 nM
smiles,measurement,setting,value
"CC(/C=C/C(=O)NO)=C\[C@@H](C)C(=O)c1ccc(N(C)C)cc1 [TSA, trichostatin A]",Cell number ± SEM of blastocysts,[1]; TSA 5 nM for 48 hours,89 ± 6
same,Number of cleaved embryos,"[1]; TSA 5 nM for 48 hours, 106 cultured embryos",85
same,Cleavage rate (cleaved embryos to cultured embryos),[1]; TSA 5 nM for 48 hours,80%
same,Number of embryos at the blastocyst stage,[1]; TSA 5 nM for 48 hours,28
same,Cell number ± SEM of blastocysts,[1]; TSA 50 nM for 48 hours,83 ± 6
same,Number of cleaved embryos,"[1]; TSA 50 nM for 48 hours, 97 cultured embryos",73
same,Cleavage rate (cleaved embryos to cultured embryos),[1]; TSA 50 nM for 48 hours,75%
same,Number of embryos at the blastocyst stage,[1]; TSA 50 nM for 48 hours,29
same,Cell number ± SEM of blastocysts,[1]; TSA 500 nM for 48 hours,92 ± 8
same,Number of cleaved embryos,"[1]; TSA 500 nM for 48 hours, 97 cultured embryos",73
same,Cleavage rate (cleaved embryos to cultured embryos),[1]; TSA 500 nM for 48 hours,75%
same,Number of embryos at the blastocyst stage,[1]; TSA 500 nM for 48 hours,5
same,increase in blastocyst development rate,[1]; TSA at a certain concentration for a certain period of time,about 2 fold
same,influence on cell number of blastocysts,[1]; [3],did not influence
same,influence on cleavage rate,[1]; [3],did not influence
same,development rate,[2],reduced

# Source: US20090055945A1, “Method for Producing Nuclear-Transplanted Egg” (priority 2005, published 2009)
